From patent US20260183405A1, “SMALL MOLECULE-DRUG-CONJUGATES CLEAVABLE IN A TUMOR MICROENVIRONMENT” (priority 2022, published 2026)
Read-outs that look alike come from different tables or passages of the source. Starred links: 1 amine or outer side, 2 acyl side, 3 side chain; linkers in the order of their positions; H or OH if unused. Non-standard residues stand in square brackets, D forms with d. Residues, ends and D or L forms follow the SMILES beside them. Groups on a side chain read outwards from the residue. *: point of attachment. Camptothecin(7-Et) = CCc1c2c(nc3ccccc13)-c1cc3c(c(=O)n1C2)COC(=O)[C@@]3(CC)O*; EuK = O=C(O)CC[C@H](NC(=O)N[C@@H](CCCCN*)C(=O)O)C(=O)O; PEG3 = NCCOCCOCCOCCC(=O)O; CO = O=C([*:1])[*:2]

Experiments:
786-O = experiment: Cytotoxicity in vitro in the presence and absence of elastase (MTT assay); type: cell-based; conditions: 786-O cells, 72 h incubation
Method: (§1) Cultivation of cells was performed according to standard procedures with the media recommended by the provider. The cells, in a total volume of 100 μL, were seeded in a 96-well plate with a white bottom (#3610). After a 24 h incubation period at 37° C. and 5% CO2, the medium was exchanged by adding 90 μL fresh medium. The treatment started by adding the test compound in 10 μL of culture medium to the cells in triplicates. Concentrations ranging from 10^−5 M to 10^−13 M were chosen. Two identically treated sets of samples were prepared. One set was treated with the test compound alone, whereas to the second set the compound and 10 nM elastase (NE) was added followed by a 72 h incubation period at 37° C. and 5% CO2. The proliferation was detected using the MTT assay (ATCC). At the end of the incubation period the MTT reagent was added to all samples for 4h. Lysis of the cells followed by addition of the detergent was done overnight. The formed dye was detected at 570 nm. The proliferation of untreated but otherwise identically handled cells was defined as the 100% value. The dose response curves allowed the determination of the respective IC50 values. […]

HT29 = experiment: as above; type: cell-based; conditions: HT29 cells, 72 h incubation
Method: as §1

NCI-H292 = experiment: as above; type: cell-based; conditions: NCI-H292 cells, 72 h incubation
Method: as §1

SUM149PT = experiment: as above; type: cell-based; conditions: SUM149PT cells, 72 h incubation
Method: as §1

[1] = Pharmacokinetics in rat after intravenous administration; type: in vivo; conditions: plasma, male rats, intravenous bolus 0.5 mg/kg; for clearance: read-out: CL plasma; for Vd: read-out: VSS
Method: Male rats (n=3) were given an intravenous 0.5 mg/kg bolus dose of test article dissolved in plasma with 1% DMSO and 2% ethanol. Serial blood samples were collected up to 24 hours post-dose. Plasma was harvested from blood samples and stored frozen until sample analysis. Test article plasma concentrations were analyzed by LC/MS/MS. Pharmacokinetic parameters were calculated using non-compartmental analysis.

[2] = compound alone, read-out: IC50 without neutrophil elastase
[3] = with 10 nM elastase (NE), read-out: IC50 with neutrophil elastase

Compound	IC50 (786-O; [2])	IC50 (786-O; [3])	IC50 (HT29; [2])	IC50 (HT29; [3])	IC50 (NCI-H292; [2])	IC50 (NCI-H292; [3])	IC50 (SUM149PT; [2])	IC50 (SUM149PT; [3])	AUC [1]	half-life [1]	clearance [1]	Vd [1]
CC(C)[C@H](NC(=O)[C@@H]1CCCN1C(=O)[C@H](CC(=O)O)NC(=O)CCOCCOCCOCCNC(=O)NCCCC[C@H](NC(=O)N[C@@H](CCC(=O)O)C(=O)O)C(=O)O)C(=O)N=S(C)(=O)Cc1cc2nc(c1)OCCCOc1cc(F)ccc1-c1cc(ncc1F)N2 (relative stereo) [Compound 9, tetrasodium 1-[(2S,23S,27S)-23,27,29-tricarboxylato-2-(carboxylatomethyl)-4,17,25-trioxo-7,10,13-trioxa-3,16,18,24,26-pentaazanonacosanan-1-oyl]-L-prolyl-N—[(R*)—{[15,19-difluoro-3,4-dihydro-2H,11H-10,6-(azeno)-12,16-(metheno)-1,5,11,13-benzodioxadiazacyclooctadecin-8-yl]methyl}(methyl)oxo-lambda6-sulfanylidene]-L-valinamide]	100 to 999 nM	1 to 9.9 nM	100 to 999 nM	1 to 9.9 nM	100 to 999 nM	1 to 9.9 nM	100 to 999 nM	1 to 9.9 nM				
CC(C)[C@H](NC(=O)[C@@H]1CCCN1C(=O)[C@H](CC(=O)O)NC(=O)CCOCCOCCOCCNC(=O)CCC(=O)Nc1nnc(S(N)(=O)=O)s1)C(=O)N=[S@](C)(=O)Cc1cc2nc(c1)OCCCOc1cc(F)ccc1-c1cc(ncc1F)N2 (relative stereo) [Compound 10, sodium 1-{(2S)-2-(carboxylatomethyl)-4,17,20-trioxo-20-[(5-sulfamoyl-1,3,4-thiadiazol-2-yl)amino]-7,10,13-trioxa-3,16-diazaicosanan-1-oyl}-L-prolyl-N—[(R*)—{[15,19-difluoro-3,4-dihydro-2H,11H-10,6-(azeno)-12,16-(metheno)-1,5,11,13-benzodioxadiazacyclooctadecin-8-yl]methyl}(methyl)oxo-lambda6-sulfanylidene]-L-valinamide]	> 1000 nM	1 to 9.9 nM	> 1000 nM	1 to 9.9 nM	100 to 999 nM	1 to 9.9 nM	100 to 999 nM	1 to 9.9 nM				
CCCNC(=O)Nc1cccc(S(=O)(=O)Nc2cccc([C@@H](CC(=O)O)NC(=O)Nc3ccc(NC(=O)NCCOCCOCCOCCC(=O)N[C@@H](CCC(=O)NCCOCCOCCOCCC(=O)N[C@@H](CC(=O)O)C(=O)N4CCC[C@H]4C(=O)N[C@H](C(=O)O[C@]4(CC)C(=O)OCc5c4cc4n(c5=O)Cc5c-4nc4ccccc4c5CC)C(C)C)C(=O)NCCOCCOCCOCCC(=O)N[C@@H](CC(=O)O)C(=O)N4CCC[C@H]4C(=O)N[C@H](C(=O)O[C@]4(CC)C(=O)OCc5c4cc4n(c5=O)Cc5c-4nc4ccccc4c5CC)C(C)C)cc3)c2)c1 [Compound 3]	100 to 999 nM	1 to 9.9 nM	100 to 999 nM	1 to 9.9 nM	100 to 999 nM	1 to 9.9 nM	10 to 99 nM	1 to 9.9 nM				
CCc1c2c(nc3ccccc13)-c1cc3c(c(=O)n1C2)COC(=O)[C@@]3(CC)OC(=O)[C@@H](NC(=O)[C@@H]1CCCN1C(=O)[C@H](CC(=O)O)NC(=O)CCOCCOCCOCCNC(=O)CCC(=O)Nc1nnc(S(N)(=O)=O)s1)C(C)C [Compound 4, sodium (4S)-4,11-diethyl-3,14-dioxo-3,4,12,14-tetrahydro-1H-pyrano[3′,4′:6,7]indolizino[1,2-b]quinolin-4-yl 1-{(2S)-2-(carboxylatomethyl)-4,17,20-trioxo-20-[(5-sulfamoyl-1,3,4-thiadiazol-2-yl)amino]-7,10,13-trioxa-3,16-diazaicosanan-1-oyl}-L-prolyl-L-valinate]	100 to 999 nM	1 to 9.9 nM	> 1000 nM	10 to 99 nM	100 to 999 nM	1 to 9.9 nM	100 to 999 nM	1 to 9.9 nM				
CCc1c2c(nc3ccccc13)-c1cc3c(c(=O)n1C2)COC(=O)[C@@]3(CC)OC(=O)[C@@H](NC(=O)[C@@H]1CCCN1C(=O)[C@H](CC(=O)O)NC(=O)CCOCCOCCOCCNC(=O)[C@H](CCCCNC(=O)CCOCCOCCOCCNC(=O)NCCCC[C@H](NC(=O)N[C@@H](CCC(=O)O)C(=O)O)C(=O)O)NC(=O)CCOCCOCCOCCNC(=O)NCCCC[C@H](NC(=O)N[C@@H](CCC(=O)O)C(=O)O)C(=O)O)C(C)C [Compound 7, heptasodium (4S)-4,11-diethyl-3,14-dioxo-3,4,12,14-tetrahydro-1H-pyrano[3′,4′:6,7]indolizino[1,2-b]quinolin-4-yl 1-[(2S)-15-{[N2,N6-bis(3S,7S)(1,3,7-tricarboxylato-5,13,26-trioxo-17,20,23-trioxa-4,6,12,14-tetraazahexacosan-26-yl)-L-lysyl]amino}-2-(carboxylatomethyl)-4-oxo-7,10,13-trioxa-3-azapentadecanan-1-oyl]-L-prolyl-L-valinate] ({EuK-CO-PEG3}-K([PEG3-CO-EuK])[PEG3]DPV-{Camptothecin(7-Et)})	100 to 999 nM	1 to 9.9 nM	> 1000 nM	10 to 99 nM	100 to 999 nM	1 to 9.9 nM	100 to 999 nM	1 to 9.9 nM				
CCc1c2c(nc3ccccc13)-c1cc3c(c(=O)n1C2)COC(=O)[C@@]3(CC)OC(=O)[C@@H](NC(=O)[C@@H]1CCCN1C(=O)[C@H](CC(=O)[O-])NC(=O)CCOCCOCCOCCNC(=O)[C@H](CCCCNC(=O)CCOCCOCCOCCNC(=O)CCC(=O)Nc1cccc2c(C(=O)NCC(=O)N3CC(F)(F)C[C@H]3C#N)ccnc12)NC(=O)CCOCCOCCOCCNC(=O)CCC(=O)Nc1cccc2c(C(=O)NCC(=O)N3CC(F)(F)C[C@H]3C#N)ccnc12)C(C)C.[Na+] [Compound 20, sodium (4S)-4,11-diethyl-3,14-dioxo-3,4,12,14-tetrahydro-1H-pyrano[3′,4′:6,7]indolizino[1,2-b]quinolin-4-yl 1-[(2S)-15-{[N2,N6-bis(17-{[4-({2-[(2S)-2-cyano-4,4-difluoropyrrolidin-1-yl]-2-oxoethyl}carbamoyl)quinolin-8-yl]amino}-14,17-dioxo-4,7,10-trioxa-13-azaheptadecanan-1-oyl}-L-lysyl]amino)-2-(carboxylatomethyl)-4-oxo-7,10,13-trioxa-3-azapentadecanan-1-oyl]-L-prolyl-L-valinate]	> 1000 nM	1 to 9.9 nM	> 1000 nM	10 to 99 nM	100 to 999 nM	1 to 9.9 nM			1000 to 10000 ng·h/mL	30 to 60 min	0.5 to 5 mL/min/kg	0.1 to 0.3 L/kg
CCc1c2c(nc3ccccc13)-c1cc3c(c(=O)n1C2)COC(=O)[C@@]3(CC)OC(=O)[C@@H](NC(=O)[C@@H]1CCCN1C(=O)[C@H](CC(=O)[O-])NC(=O)CCOCCOCCOCCNC(=O)CCCC(=O)NCCCC[C@H](NC(=O)CCOCCOCCOCCNC(=O)CCC(=O)Nc1cccc2c(C(=O)NCC(=O)N3CC(F)(F)C[C@H]3C#N)ccnc12)C(=O)NCCCCCCCC(=O)[O-])C(C)C.[Na+].[Na+] [Compound 21, disodium (4S)-4,11-diethyl-3,14-dioxo-3,4,12,14-tetrahydro-1H-pyrano[3′,4′:6,7]indolizino[1,2-b]quinolin-4-yl 1-[(2S,27S)-27-[(7-carboxylatoheptyl)carbamoyl]-2-(carboxylatomethyl)-45-{[4-({2-[(2S)-2-cyano-4,4-difluoropyrrolidin-1-yl]-2-oxoethyl}carbamoyl)quinolin-8-yl]amino}-4,17,21,29,42,45-hexaoxo-7,10,13,32,35,38-hexaoxa-3,16,22,28,41-pentaazapentatetracontanan-1-oyl]-L-prolyl-L-valinate]	> 1000 nM	1 to 9.9 nM	> 1000 nM	10 to 99 nM	100 to 999 nM	1 to 9.9 nM			1000 to 10000 ng·h/mL	30 to 60 min	0.5 to 5 mL/min/kg	0.1 to 0.3 L/kg
CCCNC(=O)Nc1cccc(S(=O)(=O)Nc2cccc([C@@H](CC(=O)O)NC(=O)Nc3ccc(NC(=O)NCCOCCOCCOCCC(=O)N[C@@H](CC(=O)O)C(=O)N4CCC[C@H]4C(=O)N[C@H](C(=O)NCCCN(C(=O)CO)[C@@H](c4cc(-c5cc(F)ccc5F)cn4Cc4ccccc4)C(C)(C)C)C(C)C)cc3)c2)c1 [Compound 25, disodium 1-[(2S)-2-(carboxylatomethyl)-17-{4-[({(1R)-2-carboxylato-1-[3-({3-[(propylcarbamoyl)amino]benzene-1-sulfonyl}amino)phenyl]ethyl}carbamoyl)amino]anilino}-4,17-dioxo-7,10,13-trioxa-3,16-diazaheptadecanan-1-oyl]-L-prolyl-N-{3-[({1R)-1-[1-benzyl-4-(2,5-difluorophenyl)-1H-pyrrol-2-yl]-2,2-dimethylpropyl}(hydroxyacetyl)amino]propyl}-L-valinamide]			> 1000 nM	1 to 9.9 nM	> 1000 nM	10 to 99 nM	> 1000 nM	1 to 9.9 nM				
